Assay results taken from patent US20070032480A1, “Treatment of ischemia-induced arrhythmias” (The Johns Hopkins University, priority 2005, published 2007).
“Also recorded” adds a separate entry of the source.

How the values were obtained:
[1] = system: Langendorff-perfused guinea pig hearts; experiment: Electrophysiological response to 30 min no-flow global ischemia; conditions: for blunting of AP shortening and persistence of APs during ischemia at the highest concentration: 100 μM, 30 min no-flow ischemia; for ischemia-induced APD shortening: pre-treatment before no-flow ischemia; for ischemia-induced APD shortening / ischemia-induced reduction of normalized APA and upstroke velocity (dF/dt): versus control hearts; for ischemia-induced reduction of normalized APA and upstroke velocity (dF/dt): relative to pre-ischemia baseline; for time for the onset of inexcitability during ischemia: no-flow ischemia, control hearts ˜18 min
Procedure: (§1) All procedures involving the handling of animals were approved by the Animal Care and Use Committee of the Johns Hopkins University and adhered with public health service guidelines. As described in detail elsewhere (28), adult guinea pigs (n=48) were anesthetized with pentobarbital sodium (30 mg/kg ip), and retrogradely perfused as Langendorff preparations with oxygenated (95% 02-5% CO2) Tyrode solution containing (in mmol/l) 130 NaCl, 1.2 MgSO4, 4.75 KCl, 5.0 dextrose, and 1.25 CaCl2 (pH 7.40) at 36±1° C. Hearts were stained with the voltage-sensitive dye, di-4-ANEPPS (15 μmol/l) for 10 min, and then positioned in a chamber such that the mapping field was centered over a 0.8 cm diameter region of left ventricular epicardium, midway between apex and base. Gentle pressure was applied to the posterior surface of the heart with a movable piston to stabilize the mapped surface against the imaging window of the chamber allowing us to avoid the use of electromechanical inhibitors, which interfere with repolarization, and the incidence of arrhythmias. Although experiments were typically completed within 1.5 to 2 h, these preparations remained stable for over 4 h of perfusion. Pacing with a silver pin needle placed on the epicardium was performed intermittently and briefly at various times during the experimental protocol in order to obtain a quantitative assessment of epicardial conduction velocity at each time point. Pacing was then turned off in order to determine the intrinsic response of hearts to the ischemia reperfusion protocol independent of exogenous stimulation.
(§2) An optical mapping system was designed with the capability of simultaneously recording transmembrane action potentials (APs) from 464 sites. Emitted fluorescence was collected using a custom designed optical macroscope imaging system consisting of a high numerical aperture photographic lens, a dichroic mirror and an emission filter as previously described in detail (29). Emitted light exiting the detector lens was filtered (>610 nm) and focused onto the photodiode array. Photocurrent from each photodiode underwent current-to-voltage conversion, amplification, band-pass filtering, multiplexing, and digitization (1600 samples/s per channel) with 16-bit precision.
(§3) Following extraction and staining with di-4-ANEPPS, hearts were stabilized for 30 min. Monitoring of APs, perfusion pressure, coronary flow, and temperature ensured electrical stability in all preparations (n=48) used in this study. Pharmacological agents were delivered to the heart in one of two ways: 1) continuously, during control perfusion and reperfusion, or 2) in a high dose bolus (5-10× the optimal equilibration concentration), injected into the coronaries during the ischemic phase, 5 min before the onset of reperfusion. […] Following baseline perfusion at 15-20 mL/min to maintain a perfusion pressure of 60-70 mmHg, flow was completely stopped for 30 min (Ischemia phase), and APs (3.8 s epochs) were recorded at 1-min intervals. Following the ischemia phase, perfusion was restored initially at the same flow rate and then was adjusted slightly to exactly match the perfusion pressure during the baseline perfusion phase (Reperfusion phase). The optimal equilibration concentration of each agent was determined by its effects on ischemia-induced AP shortening, recovery of the AP duration (APD), and/or prevention of arrhythmias upon reperfusion.
Next, the ability of any of these pharmacological interventions to modulate the electrophysiological response of hearts to no-flow global ischemia was tested. […] Also, APD shortening in ischemia was accompanied by progressive reduction of the AP upstroke velocity, which occurred over a similar time frame (see, for example, FIG. 4).
Ischemic elevation of extracellular K^+ concentration, which may be mediated in part by KATP channel opening, might also be expected to partially depolarize the cellular resting membrane potential. […]

[2] = system: freshly isolated adult guinea pig ventricular myocytes; experiment: ΔΨm oscillations and action potentials in isolated cardiomyocytes (two-photon TMRM imaging with current-clamp); type: cell-based
[3] = system: Langendorff-perfused guinea pig hearts; experiment: Response to reperfusion after 30 min ischemia (arrhythmias, AP recovery); conditions: for period of electrical inexcitability upon reperfusion: 0.2 μM CsA, 4′-Cl-DZP pretreated hearts; for post-ischemic (reperfusion) arrhythmias, effect in words: reperfusion after 30 min ischemia
Procedure: as §1, §2, §3
Reperfusion of untreated control hearts was associated with sustained ventricular fibrillation (VF) in 89% of hearts (FIG. 5).

[4] = system: Langendorff-perfused guinea pig hearts; experiment: Baseline electrophysiological properties (APD, CV) of perfused hearts by optical mapping; conditions: for baseline APD / baseline CV (conduction velocity): optimal concentration of each agent (4.6 μM FGIN-1-27, 0.2 μM CsA, 64 μM 4′Cl-DZP, 10 μM GLIBEN)
Procedure: as §1, with “Although experiments were typically completed within 1.5 to 2 h, these preparations remained stable for over 4 h of perfusion.” left out
as §2
as §3, with “Monitoring of APs, perfusion pressure, coronary flow, and temperature ensured electrical stability in all preparations (n=48) used in this study.” left out
In order to investigate whether mitochondrial ROS-induced activation of IMAC underlies the electrical dysfunction of hearts subjected to IR, a protocol for reproducibly inducing ventricular fibrillation (VF) in Langendorff-perfused guinea pig hearts was established.

**Q.** Which “blunting of AP shortening and persistence of APs during ischemia at the highest concentration” value [1] does the source give for CN1C(=O)CN=C(c2ccc(Cl)cc2)c2cc(Cl)ccc21 [4′-Cl-DZP, 4′-chlorodiazepam] here?
**A.** APs persisted even after 30 min of no-flow ischemia

**Q.** What about the “blunting of AP shortening and persistence of APs during ischemia at the highest concentration” value ([1]; listed as 4′Cl-DZP) of the same compound?
**A.** most effective in blunting AP shortening during ischemia

**Q.** What about the “ischemia-induced APD shortening” value [1] of the same compound?
**A.** blunted APD shortening in a dose-dependent fashion; also recorded: blunted APD shortening during ischemia

**Q.** And the “ischemia-induced reduction of normalized APA and upstroke velocity (dF/dt)” value [1]?
**A.** protected against such decrease in both parameters

**Q.** And the “time from drug application to suppression of AP oscillations and stabilisation of APD90” value ([2]; 64 μM)?
**A.** ≤ 2 min

**Q.** And the “oscillations in APD” value ([2]; current-clamp, laser-triggered oscillations, 64 μM)?
**A.** eliminated oscillations in APD; also recorded: APD oscillations are eliminated

**Q.** What about the “whole-cell oscillations in ΔΨm” value ([2]; oscillations triggered by focal two-photon laser flash, TMRM fluorescence) of the same compound?
**A.** suppressed whole-cell oscillations in ΔΨm; also recorded: interruption of mitochondrial oscillations with ΔΨm recovery

**Q.** And the “time to return of ΔΨm oscillations after washout of the compound” value ([2]; washout, FIG. 1A)?
**A.** ≤ 10 min

**Q.** What about the “period of electrical inexcitability upon reperfusion” value [3] of the same compound?
**A.** < 2 min

**Q.** And the “restoring the APD upon reperfusion and preventing arrhythmias” value ([3]; 100 μM versus 64 μM)?
**A.** not as effective as the lower concentration of 64 μM in restoring the APD upon reperfusion and preventing arrhythmias

**Q.** And the “prevention of reperfusion-related VF” value ([3]; 320 μM high dose bolus 5 min prior to onset of reperfusion)?
**A.** 4 of 4

**Q.** And the “prevention of reperfusion-related VF” value ([3]; 32-64 μM delivered continuously prior to ischemia)?
**A.** 6 of 8

**Q.** What about the “hearts that exhibited no sustained arrhythmias upon reperfusion” value ([3]; all 4′-Cl-DZP treated hearts (continuous and bolus)) of the same compound?
**A.** 10 of 12

**Q.** What about the “recovery of the AP upon reperfusion” value ([3]; optimal concentrations (64 μM 4′-Cl-DZP, 0.2 μM CsA)) of the same compound?
**A.** promoted the rapid recovery of the AP morphology and duration

**Q.** What about the “post-ischemic (reperfusion) arrhythmias, effect in words” value (shortened to “post-ischemic (reperfusion) arrhythmias”) [3] of the same compound?
**A.** markedly decreased the incidence of post-ischemic arrhythmias; also recorded: more effective than continuous inhibition of KATP channels

**Q.** And the “post-ischemic (reperfusion) arrhythmias” value ([3]; listed as 4′CL-DZP)?
**A.** prevented reperfusion-related ventricular fibrillation

**Q.** And the “effect on APD or CV during baseline perfusion” value ([4]; 100 μM, baseline perfusion)?
**A.** no significant effect on APD or CV; also recorded: comparable

**Q.** And the “baseline APD” value ([4]; baseline perfusion)?
**A.** 188 ± 16 ms

**Q.** What about the “baseline CV (conduction velocity)” value ([4]; baseline perfusion) of the same compound?
**A.** 39 ± 5 cm/s

**Q.** CCCCCCN(CCCCCC)C(=O)Cc1c(-c2ccc(F)cc2)[nH]c2ccccc12 [FGIN-1-27] was tested. Which “time for the onset of inexcitability during ischemia” value [1] did it give?
**A.** 12.7 ± 2.6 min

**Q.** What about the “ischemia-induced APD shortening” value [1] of the same compound?
**A.** accelerated APD shortening during ischemia

**Q.** What about the “ischemia-induced reduction of normalized APA and upstroke velocity (dF/dt)” value [1] of the same compound?
**A.** accentuated the ischemia-induced reduction of APA and dF/dt; also recorded: more enhanced reduction of action potential amplitude

**Q.** What about the “slowing of CV during ischemia” value ([1]; versus untreated hearts) of the same compound?
**A.** disproportionate slowing of CV

**Q.** What about the “period of electrical inexcitability upon reperfusion” value [3] of the same compound?
**A.** prolonged period of electrical silence

**Q.** What about the “hearts with ventricular tachycardia (VT) upon reperfusion” value ([3]; FGIN-1-27 treated hearts) of the same compound?
**A.** 6 of 6

**Q.** And the “cycle length of VT upon reperfusion” value ([3]; compared to control hearts)?
**A.** significantly longer cycle length

**Q.** What about the “post-ischemic (reperfusion) arrhythmias” value [3] of the same compound?
**A.** long period of electrical silence followed by ventricular tachycardia (VT) of long duration

**Q.** What about the “effect on APD and excitability during normal perfusion” value ([4]; 46 μM, normal perfusion) of the same compound?
**A.** significant APD shortening and membrane inexcitability

**Q.** What about the “time from drug delivery to APD shortening and membrane inexcitability” value ([4]; 46 μM, normal perfusion) of the same compound?
**A.** ≤ 15 min

**Q.** What about the “baseline APD” value ([4]; baseline perfusion) of the same compound?
**A.** 174 ± 16 ms

**Q.** And the “baseline CV (conduction velocity)” value ([4]; baseline perfusion)?
**A.** 44 ± 6 cm/s

**Q.** Which results are given for COc1ccc(Cl)cc1C(=O)NCCc1ccc(S(=O)(=O)NC(=O)NC2CCCCC2)cc1 [GLIBEN]?
**A.** time for the onset of inexcitability during ischemia [1]: ~18 min; ischemia-induced APD shortening [1]: marked reduction in the rate of APD shortening; ischemia-induced reduction of normalized APA and upstroke velocity (dF/dt) [1]: protected against such decrease in both parameters; hearts in which tachyarrhythmias were prevented ([3]; bolus dose given just prior to reperfusion): 2 of 3; baseline APD ([4]; baseline perfusion): 182 ± 16 ms; baseline CV (conduction velocity) ([4]; baseline perfusion): 41 ± 5 cm/s
